Earlier results, collected in patent US20100284984A1, “ADENOSINE AND ITS MIMETICS. MODULATORS, TRANSPORT INHIBITORS, AND RECEPTOR AGONISTS AS A THERAPEUTIC TOOL TO REPLACE OR IMPROVE THE EFFICACY OF DEEP BRAIN STIMULATION” (University of Rochester, priority 2007, published 2010).

How the values were obtained:
[1] = molecular target: Ecto-ATPase; conditions: Yegutkin et al., rat liver plasma membranes; cited from earlier work
[2] = molecular target: Ecto-ATPase; conditions: range over Crack et al.; Dowd et al.; Stout et al.; cited from earlier work
[3] = molecular target: Ecto-ATPase; conditions: Chen et al.; cited from earlier work

For Cc1ccc(C(=O)Nc2ccc(S(=O)(=O)O)c3cc(S(=O)(=O)O)cc(S(=O)(=O)O)c23)cc1NC(=O)c1cccc(NC(=O)Nc2cccc(C(=O)Nc3cc(C(=O)Nc4ccc(S(=O)(=O)O)c5cc(S(=O)(=O)O)cc(S(=O)(=O)O)c45)ccc3C)c2)c1 [suramin], the “pIC 50” value [1] is listed as 4.57, the IC50 [2] is listed as 46 to 114 µM and the Ki [3] is listed as 44 µM.
